Some results are limits rather than exact numbers.

The term IC50 denotes the concentration that inhibits the measured activity by half.

The target of this test is T1, TLR8 (Homo sapiens, UniProt Q9NR97).
T1 sequence (Q9NR97 27-1041): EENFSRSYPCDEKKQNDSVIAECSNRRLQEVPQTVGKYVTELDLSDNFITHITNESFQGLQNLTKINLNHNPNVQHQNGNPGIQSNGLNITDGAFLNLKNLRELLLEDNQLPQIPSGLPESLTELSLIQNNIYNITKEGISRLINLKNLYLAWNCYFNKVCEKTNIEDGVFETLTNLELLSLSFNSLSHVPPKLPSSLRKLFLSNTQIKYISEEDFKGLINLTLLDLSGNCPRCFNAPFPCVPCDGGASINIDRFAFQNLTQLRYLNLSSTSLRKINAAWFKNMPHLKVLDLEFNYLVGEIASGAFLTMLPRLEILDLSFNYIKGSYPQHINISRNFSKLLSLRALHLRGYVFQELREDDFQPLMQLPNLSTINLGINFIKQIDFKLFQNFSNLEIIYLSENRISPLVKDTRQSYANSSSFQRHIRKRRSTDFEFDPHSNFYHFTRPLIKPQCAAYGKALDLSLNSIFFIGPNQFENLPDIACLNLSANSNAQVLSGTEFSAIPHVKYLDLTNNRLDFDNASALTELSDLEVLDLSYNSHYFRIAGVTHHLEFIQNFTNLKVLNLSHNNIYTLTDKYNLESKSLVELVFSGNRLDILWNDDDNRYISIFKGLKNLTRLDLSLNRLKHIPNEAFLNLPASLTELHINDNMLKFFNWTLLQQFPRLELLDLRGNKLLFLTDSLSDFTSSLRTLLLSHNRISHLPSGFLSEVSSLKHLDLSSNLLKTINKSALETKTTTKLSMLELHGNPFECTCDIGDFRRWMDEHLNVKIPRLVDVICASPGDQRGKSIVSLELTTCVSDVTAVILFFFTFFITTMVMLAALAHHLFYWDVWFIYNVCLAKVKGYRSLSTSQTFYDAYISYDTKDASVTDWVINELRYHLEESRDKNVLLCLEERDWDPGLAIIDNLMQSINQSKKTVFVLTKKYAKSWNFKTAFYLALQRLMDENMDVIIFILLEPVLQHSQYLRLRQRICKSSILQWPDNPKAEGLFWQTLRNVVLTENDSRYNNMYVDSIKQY
Put plainly: THP-1 TLR8 Antagonist TNFalpha TR-FRET Assay. Format: cell-based. Details: endogenous in cells. The conditions noted are these: THP-1 cells with R848 agonist, 18-20 hrs; TNFalpha TR-FRET read-out. As for the experimental part:
Cell-based assay: • 1) THP-1cells were cultured in RPMI 1640 with 10% FBS, 10 mM HEPES, 1 mM Sodium Pyruvate, 1% Penicillin-Streptomycin L-glutamine, and 1% Non-Essential Amino Acids; • 2) 3 sets of different passages of THP-1cells in assay media were pooled, counted, and resuspended in the same media as culture media, but with 5% FBS; • 3) Cells were diluted to 100,000 cells/well (30 μl/well) and the R848 agonist was diluted to 25 μM in 10 μl/well in media; • 4) The cell and agonist dilutions were combined and 40 μl/well were added to 384-well flat bottom Greiner assay plates containing test compounds in DMSO, which were Echo pre-spotted at 50 nL per well with a 8 mM top dose and 10 point 1:3 serial dilutions—10 μM final top dose; • 5) The plates were incubated overnight for 18-20 hrs at 37 degrees with 5% CO2; • 6) The plates were then centrifuged at 1000 rpm for 2 min at rt; • 7) 10 μl/well of supernatants were transferred to 384-well low volume white Greiner proxiplates; and • 8) TNFα levels were measured using the TR-FRET assay described below.
• 1) Cisbio Human TNFalpha kit, 20,000 tests (62TNFPEC), and Greiner Bio-One LIA-white TC 384 well small volume plates (cat #784080) were used; • 2) the Anti-TNFalpha Cryptate conjugate and the Anti-TNFalpha XL665 conjugate were diluted 1:20 in Reconstitution Buffer; • 3) a 1:1 mixture of 5 μl/well Anti-TNFalpha Cryptate conjugate and 5 μl/well Anti-TNFalpha XL665 conjugate was prepared; • 4) 10 μl/well HTRF dilution mastermix were added to 10 μl of transferred supernatant samples in proxiplates; • 5) The plates were incubated for 3 hrs at rt in the dark; and • 6) the levels of TNFalpha production was measured using an Envision plate reader (665 nm (emmission)/590 nm (excitation)).
With `Cn1ncc2c(N3CCc4nn(CC56CCC(N)(CC5)CC6)cc4C3)nc(N)nc21` [compound 12, 4-(2-((4-aminobicyclo[2.2.2]octan-1-yl)methyl)-6,7-dihydro-2H-pyrazolo[4,3-c]pyridin-5(4H)-yl)-1-methyl-1H-pyrazolo[3,4-d]pyrimidin-6-amine], the IC50 was greater than 10 µM. In the case of `Cc1c2c(nn1CC13CCC(N)(CC1)CC3)CCN(c1nc(N)nc3c1cnn3C)C2` [compound 14, 4-(2-((4-aminobicyclo[2.2.2]octan-1-yl)methyl)-3-methyl-6,7-dihydro-2H-pyrazolo[4,3-c]pyridin-5(4H)-yl)-1-methyl-1H-pyrazolo[3,4-d]pyrimidin-6-amine] it was greater than 10 µM. For `Cn1ncc2c(N3CCc4c(cnn4CC45CCC(N)(CC4)CC5)C3)nc(N)nc21` [compound 11, 4-(1-((4-aminobicyclo[2.2.2]octan-1-yl)methyl)-6,7-dihydro-1H-pyrazolo[4,3-c]pyridin-5(4H)-yl)-1-methyl-1H-pyrazolo[3,4-d]pyrimidin-6-amine] the value was 8.23 µM.

The record behind these values is patent US20240376099A1, “COMPOUNDS AND COMPOSITIONS AS INHIBITORS OF ENDOSOMAL TOLL-LIKE RECEPTORS” (Novartis AG, priority 2016, published 2024).
